# Entries after “also recorded” stand apart in the source; their conditions may differ. Structures can show the parent of a compound that is named as a salt.
# What was measured:
# [1] = toxicokinetics experiment II: short-term uptake of different concentrations; format: in vivo, Caenorhabditis elegans; conditions: k2f elimination rate constant of fluoxetine (k2FLX,sum), exp II, no E. coli, 2 h
# Procedure: (§1) In between cycles, the samples were kept on ice. […] Samples were stored at −20 °C until further analysis.
# (§2) All parameters and units are summarized in SI A3.
# C. elegans [2] = experiment: as above; format: in vivo, Caenorhabditis elegans; conditions: for BCF FLX (kinetic bioconcentration factor) / k1 uptake rate constant: exp II, no E. coli, 2 h
# Procedure: as §1, §2
# cyp35-a2 = cyp35-a2 gene expression (qRT-PCR); format: in vivo, Caenorhabditis elegans
# Procedure: 1500 worms were collected in eppendorf tubes with 300 μL of RLT lysis buffer (Qiagen, Hilden, Germany) and homogenized using a Minilys homogenizer (Bertin Technologies) at middle speed four times for 20 s and kept on ice in between. Total RNA was isolated with the QIAshredder and RNeasy mini kits (Qiagen) according to the manufacturer’s protocol. The QuantiTect reverse transcription kit (Qiagen) was used for cDNA generation. RT-qPCR was performed on a Biorad CFX Opus 384 System using an iQ SYBR Green Supermix (Biorad) for amplification. The gene of interest was cyp35-a2, and cdc-42 was used as a housekeeping gene. Primers were generated by Biolegio (Nijmegen, The Netherlands); further details on the RT-qPCR and primers can be found in SI A7. Three biological replicates were used for each treatment.
# [3] = test system: Gammarus pulex, Nile tilapia, and Japanese Medaka; conditions: cited from earlier work
# [4] = test system: marine mussels, freshwater mussels, Daphnia magna; conditions: cited from earlier work
# [5] = toxicokinetics experiment III: effect of E. coli on uptake; format: in vivo, Caenorhabditis elegans; conditions: 10 mg/L, k2f elimination rate constant of fluoxetine (k2FLX,sum), exp III, 10 h
# Procedure: as §1, §2
# C. elegans [6] = experiment: as above; format: in vivo, Caenorhabditis elegans; conditions: for BCF FLX (kinetic bioconcentration factor) / kt transformation rate constant of fluoxetine to norfluoxetine: exp III, 10 h
# Procedure: as §1, §2
# [7] = stability of fluoxetine in S medium; conditions: 10 mg/L, 20 °C, 0.5-24 h
# Procedure: After 0.5, 1, 2, 5, 10, and 24 h at 20 °C, samples of spiked medium were stored at −80 °C until analysis. […] Therefore, two replicates of the samples were washed three times with M9 buffer, while the other two were just centrifuged once, and the entire supernatant was removed.
# E. coli containing pellets were resuspended in 250 μL of methanol and frozen in liquid nitrogen and then left at room temperature to thaw, followed by 5 min of sonication in a sonication bath. The freeze–thawing and sonication were repeated twice more and after this, samples were centrifuged at 15,000g for 15 min. The supernatant was stored at −20 °C until analysis.
# Separation was performed on a UHPLC system (Shimadzu) with a Kinetex 1.7 μm C18 100 A LC column (150 mm × 2.1 mm, Phenomenex).
# [8] = toxicokinetics experiment IV: long-term exposure of L4 and adult worms; conditions: whole organism (worm homogenate), iv, exp IV, with E. coli, 48 h
# Procedure: (§3) Three replicates of 1500 pooled C. elegans were used for each time point for each concentration. For experiments with E. coli, the OD600 was kept constant at 0.4.
# (§4) C. elegans containing pellets were resuspended in 500 μL of methanol, and 0.6 g of […] ceramic beads (1.4 mm) were added to the vial. The samples were homogenized three times for 20 s using a Minilys homogenizer (Bertin Technologies) at middle speed. In between cycles, the samples were kept on ice. […] The supernatant was transferred to a glass tube, the pellet (including the ceramic beads) was resuspended in 500 μL of methanol, and the homogenization, sonication, and centrifugation cycle was repeated twice more to result in a three-step extraction. The total combined supernatant was concentrated to dryness under a gentle nitrogen stream and redissolved in 500 μL of methanol to a final concentration of the IS of 1 μM. Samples were stored at −20 °C until further analysis.
# (§5) A one-compartment model was selected since chemical concentrations could only be measured for the whole organism. […] All parameters and units are summarized in SI A3.
# (§6) The kinetic bioconcentration factor[33] was calculated with eq 3, and the ke and kt were only included when applicable to the respective experiment [drawing 4] 3
# (§7) Model fitting was performed by adding the ordinary differential equations to the BYOM modeling package version 6.3 (http://www.debtox.info/byom.html) in Matlab R2022b.[34] […] Optimization was performed with the Melder–Mead Simplex Search method, minimizing the minus log-likelihood. […] Model script deviations from the BYOM model can be found in SI A9.
# C. elegans [9] = experiment: as above
# Procedure: as §3, §4, §5, §6, §7
# [10] = toxicokinetics experiment I: elimination after 1 h exposure; format: in vivo, Caenorhabditis elegans; conditions: whole organism (worm homogenate)
# Procedure: as §1, §2
# C. elegans [11] = experiment: as above; format: in vivo, Caenorhabditis elegans; conditions: after 1 h exposure; no E. coli
# Procedure: as §1, §2
# C. elegans [12] = experiment: norfluoxetine uptake and coexposure with fluoxetine (SI A5); format: in vivo, Caenorhabditis elegans; conditions: fluoxetine 5 and 20 mg/L with norfluoxetine 20 mg/L
# Procedure: Alternatively, there could be a concentration-dependent increase in metabolism over time resulting from enzyme induction. This was modeled with an extra metabolism rate constant ke that was included after 10 h (eq 1a and Figure 4C,D).
# [13] = combined experiments II, III, IV
# [14] = with E. coli, 10 mg/L, k1, k2FLX, k2NF, kt constrained (eq 1b)
# [15] = with E. coli, 10 mg/L, no constraint
# [16] = exp IV, with E. coli, 0.5 mg/L, 48 h
# [17] = exp IV, with E. coli, 20 mg/L, 48 h
smiles,measurement,setting,value
"CNCCC(Oc1ccc(C(F)(F)F)cc1)c1ccccc1 (centres unmarked) [fluoxetine, Fluoxetine hydrochloride]",k el,"[1]; whole organism (homogenate of pooled worms), 5 mg/L, k2FLX constrained (value of experiment I)",0.000394 s⁻¹
same,k el,"[1]; whole organism (homogenate of pooled worms), 5 mg/L, no constraint",0.000333 s⁻¹
same,k el,"[1]; whole organism (homogenate of pooled worms), 20 mg/L, k2FLX constrained (value of experiment I)",0.000394 s⁻¹
same,k el,"[1]; whole organism (homogenate of pooled worms), 20 mg/L, no constraint",0.000778 s⁻¹
same,k el,"[1]; whole organism (worm homogenate), 0.5 mg/L, k2FLX constrained (value of experiment I)",0.000394 s⁻¹
same,k el,"[1]; whole organism (worm homogenate), 0.5 mg/L, no constraint",0.000981 s⁻¹
same,BCF versus exposure concentration,C. elegans [2]; [13],BCF: negatively correlated
same,k1 versus exposure concentration,C. elegans [2]; [13],k1: negatively correlated
same,BCF FLX (kinetic bioconcentration factor),"C. elegans [2]; 0.5 mg/L, k2FLX constrained",15.85
same,k1 uptake rate constant,"C. elegans [2]; 0.5 mg/L, k2FLX constrained",22.5 L/(kgnem h)
same,BCF FLX (kinetic bioconcentration factor),"C. elegans [2]; 0.5 mg/L, no constraint",13.06
same,k1 uptake rate constant,"C. elegans [2]; 0.5 mg/L, no constraint",46.1 L/(kgnem h)
same,BCF FLX (kinetic bioconcentration factor),"C. elegans [2]; 5 mg/L, k2FLX constrained",7.18
same,k1 uptake rate constant,"C. elegans [2]; 5 mg/L, k2FLX constrained",10.2 L/(kgnem h)
same,BCF FLX (kinetic bioconcentration factor),"C. elegans [2]; 5 mg/L, no constraint",7.66
same,k1 uptake rate constant,"C. elegans [2]; 5 mg/L, no constraint",9.19 L/(kgnem h)
same,BCF FLX (kinetic bioconcentration factor),"C. elegans [2]; 20 mg/L, k2FLX constrained",3.20
same,k1 uptake rate constant,"C. elegans [2]; 20 mg/L, k2FLX constrained",4.54 L/(kgnem h)
same,BCF FLX (kinetic bioconcentration factor),"C. elegans [2]; 20 mg/L, no constraint",2.71
same,k1 uptake rate constant,"C. elegans [2]; 20 mg/L, no constraint",7.58 L/(kgnem h)
same,increase in CYP gene expression (cyp35-a2) over time,cyp35-a2; 0.5 mg/L fluoxetine,not observed
same,CYP gene expression (cyp35-a2) over time,"cyp35-a2; 20 mg/L fluoxetine, observed for 24 h, not yet for 10 h",increase in CYP gene expression over time
same,k2 elimination rate,[3],0.0008 to 0.08 h⁻¹
same,BCF values in other species,[4],"100 to 10,000"
same,k el,"[5]; whole organism (homogenate of pooled worms), no E. coli",0.000461 s⁻¹
same,k el,"[5]; whole organism (worm homogenate), with E. coli, k1, k2FLX, k2NF, kt constrained (eq 1b)",0.000461 s⁻¹
same,k el,"[5]; whole organism (worm homogenate), with E. coli, no constraint",0.000111 s⁻¹
same,time to reach peak internal fluoxetine concentrations,C. elegans [6]; Figure 4,2 to 5 h
same,"effect of presence of bacteria on k2FLX,sum",C. elegans [6]; Figure 5,decreased to around half
same,BCF FLX (kinetic bioconcentration factor),"C. elegans [6]; no E. coli, 10 mg/L",8.19
same,kt transformation rate constant of fluoxetine to norfluoxetine,"C. elegans [6]; no E. coli, 10 mg/L",0.05 h⁻¹
same,BCF FLX (kinetic bioconcentration factor),C. elegans [6]; [14],8.19
same,kt transformation rate constant of fluoxetine to norfluoxetine,C. elegans [6]; [14],0.05 h⁻¹
same,BCF FLX (kinetic bioconcentration factor),C. elegans [6]; [15],20.67
same,kt transformation rate constant of fluoxetine to norfluoxetine,C. elegans [6]; [15],0.065 h⁻¹
same,effect of presence of bacteria on internal concentration of fluoxetine,"C. elegans [6]; experiment III, 10 mg/L",almost doubled
same,BCF versus presence of E. coli,C. elegans [6]; in vivo,BCF: positively correlated
same,k2 versus presence of E. coli,C. elegans [6]; in vivo,k2: negatively correlated
same,concentration of fluoxetine in S medium without C. elegans over time,[7],constant over time
same,k el,"[8]; 0.5 mg/L, k2f elimination rate constant of fluoxetine (k2FLX,sum)",0.000336 s⁻¹
same,k el,"[8]; 0.5 mg/L, ke extra metabolism rate constant after 10 h, 0.5 mg/L",1.42e-05 s⁻¹
same,k el,"[8]; 20 mg/L, k2f elimination rate constant of fluoxetine (k2FLX,sum)",0.000233 s⁻¹
same,k el,"[8]; 20 mg/L, ke extra metabolism rate constant after 10 h, 20 mg/L",0.000144 s⁻¹
same,"steady-state concentrations, L4 versus adult C. elegans (life stage)","C. elegans [9]; 0.5 and 20 mg/L, 48 h","did not show significant differences; also recorded: tested, but no effect (L4 vs adult)"
same,IR (ingestion rate) versus (toxic) effect on feeding,"C. elegans [9]; E. coli related, modeled with eq 1b",IR (ingestion rate): negatively correlated–neurotoxic effect
same,k2 versus CYP P450 induction (linked to exposure time),C. elegans [9]; adding extra ke parameter over time,k2: positively correlated (adding extra ke parameter over time)
same,BCF FLX (kinetic bioconcentration factor),C. elegans [9]; [16],24.66
same,k1 uptake rate constant,C. elegans [9]; [16],31.1 L/(kgnem h)
same,BCF FLX (kinetic bioconcentration factor),C. elegans [9]; [17],6.36
same,k1 uptake rate constant,C. elegans [9]; [17],9.01 L/(kgnem h)
same,kt transformation rate constant of fluoxetine to norfluoxetine,C. elegans [9]; [17],0.056 h⁻¹
same,k el,"[10]; 1 h exposure (fluoxetine 0.5, 5, 20 mg/L; norfluoxetine 20 mg/L), then clean medium, no E. coli, read-out: k2sum elimination rate constant (+95% CI) (converted)",0.000394 s⁻¹
same,k el,"[10]; 1 h exposure, then clean medium, slow phase after 1 h, no E. coli, read-out: k2slow elimination rate constant (+95% CI) (converted)",0.000131 s⁻¹
same,k el,"[10]; calculated from k2sum and k2slow, read-out: k2fast elimination rate constant (converted)",0.000264 s⁻¹
same,elimination over time after transfer to clean medium,C. elegans [11],almost all fluoxetine was eliminated after 6 h
same,effect of coexposure with norfluoxetine on internal fluoxetine concentrations,C. elegans [12],"no significant differences; also recorded: tested, but no effect"
